One compound from ChEMBL document CHEMBL1158862, “Insect Toxins from an Endophytic Fungus from Wintergreen” (J Nat Prod, 1997) can be followed below.

This series can be described thus: Toxicity in spruce budworm larvae assessed as mortality at 0.8 umol. Particulars: choristoneura fumiferana, in vivo, read-out: Activity. The class given is organism-based.

Structures are written as SMILES.

`CC(C)=CCCC(=O)c1cc2cc(O)ccc2o1`: the mortality was 36%.
